Like-named read-outs stand apart in the source and are kept apart here.
Legend:
[1] = dose 60 mg/kg, infused into the muscle at a constant rate t = 0-2 hours, cited from earlier work
[2] = Blood lidocaine concentration after 2-hour constant-rate intramuscular infusion, literature (Ikeda et al.); assay type: in vivo, Rats; conditions: rat, dose 60 mg/kg, infusion t = 0-2 hours, calculated with elimination half-life = 2 hours, read-out: blood drug concentration of lidocaine

## CCN(CC)CC(=O)Nc1c(C)cccc1C [preparation in the reference, lidocaine]
[1]; time 0 hour
  blood drug concentration of lidocaine: 0 ng/mL
[1]; time 0.25 hour
  blood drug concentration of lidocaine: 1900 ng/mL
[1]; time 0.5 hour
  blood drug concentration of lidocaine: 5800 ng/mL
[1]; time 1 hour
  blood drug concentration of lidocaine: 8200 ng/mL
[1]; time 2 hour
  blood drug concentration of lidocaine: 10500 ng/mL
[1]; time 4 hour
  blood drug concentration of lidocaine: 800 ng/mL
[2]; time 6 hour
  concentration at 6 h: 400 ng/mL
[2]; time 8 hour
  concentration at 8 h: 200 ng/mL
[2]; time 12 hour
  concentration at 12 h: 100 ng/mL
[2]; time 15 hour
  concentration at 15 h: 35.3 ng/mL
[2]; time 18 hour
  concentration at 18 h: 6.25 ng/mL
[2]; time 24 hour
  concentration at 24 h: 1.6 ng/mL
[2]; time 30 hour
  concentration at 30 h: 0.2 ng/mL
[2]; time 36 hour
  concentration at 36 h: 0 ng/mL
[2]; time 42 hour
  concentration at 42 h: 0 ng/mL
[2]; time 48 hour
  concentration at 48 h: 0 ng/mL
[2]; time 54 hour
  concentration at 54 h: 0 ng/mL
[2]; time 60 hour
  concentration at 60 h: 0 ng/mL
[2]; time 66 hour
  concentration at 66 h: 0 ng/mL
[2]; time 72 hour
  concentration at 72 h: 0 ng/mL

Reference: patent US12403107B2, “Lipid pharmaceutical preparation and application thereof” (HUZHOU INNOVATION PHARMACEUTICAL CO., LTD., priority 2019, dated 2025)
